PubChem BioAssay (NCI)
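GI50 is the concentration that inhibits growth by half. TGI is the concentration that stops growth completely.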

Experiments:
Assay in all cases: NCI tumour cell line growth inhibition, 384-well format
M14 melanoma = system: M14 melanoma
DU-145 prostate = system: DU-145 prostate
HS 578T breast = system: HS 578T breast
HCT-116 colon = system: HCT-116 colon
SN12C renal = system: SN12C renal
RPMI-8226 leukemia = system: RPMI-8226 leukemia
UACC-62 melanoma = system: UACC-62 melanoma
K-562 leukemia = system: K-562 leukemia
COLO 205 colon = system: COLO 205 colon
MDA-MB-468 breast = system: MDA-MB-468 breast
SNB-19 CNS = system: SNB-19 CNS
NCI-H226 lung = system: NCI-H226 lung
BT-549 breast = system: BT-549 breast
PC-3 prostate = system: PC-3 prostate
HL-60(TB) leukemia = system: HL-60(TB) leukemia
HT29 colon = system: HT29 colon
786-0 renal = system: 786-0 renal
NCI-H322M lung = system: NCI-H322M lung
T-47D breast = system: T-47D breast
UO-31 renal = system: UO-31 renal
ACHN renal = system: ACHN renal
CAKI-1 renal = system: CAKI-1 renal
HOP-92 NSCLC = system: HOP-92 NSCLC
SF-539 CNS = system: SF-539 CNS
NCI-H23 lung = system: NCI-H23 lung
MDA-MB-231 breast = system: MDA-MB-231 breast
HOP-62 NSCLC = system: HOP-62 NSCLC
KM12 colon = system: KM12 colon
CCRF-CEM leukemia = system: CCRF-CEM leukemia
SK-MEL-28 melanoma = system: SK-MEL-28 melanoma
OVCAR-4 ovarian = system: OVCAR-4 ovarian
MDA-MB-435 melanoma = system: MDA-MB-435 melanoma
EKVX NSCLC = system: EKVX NSCLC
HCT-15 colon = system: HCT-15 colon
IGROV1 ovarian = system: IGROV1 ovarian
SW-620 colon = system: SW-620 colon
NCI-H522 lung = system: NCI-H522 lung
HCC-2998 colon = system: HCC-2998 colon
MOLT-4 leukemia = system: MOLT-4 leukemia
SF-295 CNS = system: SF-295 CNS
OVCAR-8 ovarian = system: OVCAR-8 ovarian
U251 glioblastoma = system: U251 glioblastoma
A549 NSCLC = system: A549 NSCLC
A498 renal = system: A498 renal
SNB-75 CNS = system: SNB-75 CNS
SK-MEL-5 melanoma = system: SK-MEL-5 melanoma
NCI-H460 NSCLC = system: NCI-H460 NSCLC
UACC-257 melanoma = system: UACC-257 melanoma
MALME-3M melanoma = system: MALME-3M melanoma
MCF7 breast = system: MCF7 breast
NCI/ADR-RES ovarian = system: NCI/ADR-RES ovarian
OVCAR-3 ovarian = system: OVCAR-3 ovarian
SF-268 CNS = system: SF-268 CNS
RXF 393 renal = system: RXF 393 renal
TK-10 renal = system: TK-10 renal
LOX IMVI melanoma = system: LOX IMVI melanoma
OVCAR-5 ovarian = system: OVCAR-5 ovarian
SK-OV-3 ovarian = system: SK-OV-3 ovarian

With COC[C@H](NC(=O)c1cnc(C)s1)C(=O)N[C@@H](COC)C(=O)N[C@@H](Cc1ccccc1)C(=O)[C@@]1(C)CO1 as the compound, how does the GI50 (M14 melanoma) read?
Its GI50 is under 10 nM.

And the TGI (M14 melanoma)?
Its TGI is under 10 nM.

And the GI50 (DU-145 prostate)?
Its GI50 is under 10 nM.

What about the TGI (DU-145 prostate) of the same compound?
The TGI was 223 nM.

And the GI50 (HS 578T breast)?
The GI50 was under 10 nM.

What about the TGI (HS 578T breast) of the same compound?
The TGI was under 10 nM.

And the GI50 (HCT-116 colon)?
The GI50 was under 10 nM.

And the TGI (HCT-116 colon)?
The TGI was under 10 nM.

What about the GI50 (SN12C renal) of the same compound?
The GI50 was 10.7 nM.

And the TGI (SN12C renal)?
The TGI was 30.3 nM.

What about the GI50 (RPMI-8226 leukemia) of the same compound?
The GI50 was under 10 nM.

What about the TGI (RPMI-8226 leukemia) of the same compound?
Its TGI is under 10 nM.

What about the GI50 (UACC-62 melanoma) of the same compound?
The GI50 was under 10 nM.

And the TGI (UACC-62 melanoma)?
The TGI was under 10 nM.

What about the GI50 (K-562 leukemia) of the same compound?
The GI50 was 11 nM.

And the TGI (K-562 leukemia)?
The TGI was 35.4 nM.

And the GI50 (COLO 205 colon)?
The GI50 was under 10 nM.

And the TGI (COLO 205 colon)?
Its TGI is 1530 nM.

And the GI50 (MDA-MB-468 breast)?
Its GI50 is under 10 nM.

And the TGI (MDA-MB-468 breast)?
The TGI was under 10 nM.

And the GI50 (SNB-19 CNS)?
The GI50 was under 10 nM.

And the TGI (SNB-19 CNS)?
Its TGI is 16.4 nM.

What about the GI50 (NCI-H226 lung) of the same compound?
The GI50 was under 10 nM.

And the TGI (NCI-H226 lung)?
The TGI was under 10 nM.

And the GI50 (BT-549 breast)?
The GI50 was under 10 nM.

And the TGI (BT-549 breast)?
Its TGI is under 10 nM.

And the GI50 (PC-3 prostate)?
The GI50 was 10.5 nM.

What about the TGI (PC-3 prostate) of the same compound?
Its TGI is 24 nM.

And the GI50 (HL-60(TB) leukemia)?
The GI50 was 10.7 nM.

What about the TGI (HL-60(TB) leukemia) of the same compound?
Its TGI is 23 nM.

What about the GI50 (HT29 colon) of the same compound?
Its GI50 is under 10 nM.

What about the TGI (HT29 colon) of the same compound?
The TGI was under 10 nM.

What about the GI50 ([…]-0 renal) of the same compound?
The GI50 was under 10 nM.

What about the TGI (786-0 renal) of the same compound?
Its TGI is 127 nM.

And the GI50 (NCI-H322M lung)?
The GI50 was under 10 nM.

And the TGI (NCI-H322M lung)?
Its TGI is 236 nM.

What about the GI50 (T-47D breast) of the same compound?
The GI50 was under 10 nM.

What about the TGI (T-47D breast) of the same compound?
Its TGI is under 10 nM.

And the GI50 (UO-31 renal)?
Its GI50 is 17.2 nM.

What about the TGI (UO-31 renal) of the same compound?
The TGI was 33 nM.

What about the GI50 (ACHN renal) of the same compound?
The GI50 was under 10 nM.

And the TGI (ACHN renal)?
Its TGI is 156 nM.

What about the GI50 (CAKI-1 renal) of the same compound?
Its GI50 is under 10 nM.

And the TGI (CAKI-1 renal)?
Its TGI is 1790 nM.

And the GI50 (HOP-92 NSCLC)?
The GI50 was under 10 nM.

What about the TGI (HOP-92 NSCLC) of the same compound?
Its TGI is under 10 nM.

And the GI50 (SF-539 CNS)?
Its GI50 is under 10 nM.

What about the TGI (SF-539 CNS) of the same compound?
The TGI was under 10 nM.

What about the GI50 (NCI-H23 lung) of the same compound?
Its GI50 is under 10 nM.

And the TGI (NCI-H23 lung)?
Its TGI is under 10 nM.

And the GI50 (MDA-MB-231 breast)?
Its GI50 is under 10 nM.

And the TGI (MDA-MB-231 breast)?
Its TGI is under 10 nM.

What about the GI50 (HOP-62 NSCLC) of the same compound?
The GI50 was under 10 nM.

And the TGI (HOP-62 NSCLC)?
The TGI was under 10 nM.

And the GI50 (KM12 colon)?
Its GI50 is under 10 nM.

And the TGI (KM12 colon)?
The TGI was under 10 nM.

What about the GI50 (CCRF-CEM leukemia) of the same compound?
The GI50 was under 10 nM.

What about the TGI (CCRF-CEM leukemia) of the same compound?
The TGI was under 10 nM.

And the GI50 (SK-MEL-28 melanoma)?
The GI50 was under 10 nM.

What about the TGI (SK-MEL-28 melanoma) of the same compound?
Its TGI is 12.8 nM.

What about the GI50 (OVCAR-4 ovarian) of the same compound?
Its GI50 is 12.3 nM.

And the TGI (OVCAR-4 ovarian)?
Its TGI is 29.8 nM.

And the GI50 (MDA-MB-435 melanoma)?
Its GI50 is under 10 nM.

And the TGI (MDA-MB-435 melanoma)?
The TGI was under 10 nM.

And the GI50 (EKVX NSCLC)?
Its GI50 is 14.4 nM.

And the TGI (EKVX NSCLC)?
Its TGI is 77.3 nM.

And the GI50 (HCT-15 colon)?
The GI50 was 36.8 nM.

What about the TGI (HCT-15 colon) of the same compound?
The TGI was 154 nM.

And the GI50 (IGROV1 ovarian)?
The GI50 was 15 nM.

What about the TGI (IGROV1 ovarian) of the same compound?
Its TGI is 51.2 nM.

What about the GI50 (SW-620 colon) of the same compound?
The GI50 was under 10 nM.

What about the TGI (SW-620 colon) of the same compound?
Its TGI is under 10 nM.

And the GI50 (NCI-H522 lung)?
Its GI50 is under 10 nM.

What about the TGI (NCI-H522 lung) of the same compound?
The TGI was under 10 nM.

What about the GI50 (HCC-2998 colon) of the same compound?
The GI50 was under 10 nM.

And the TGI (HCC-2998 colon)?
Its TGI is 11.2 nM.

And the GI50 (MOLT-4 leukemia)?
The GI50 was under 10 nM.

And the TGI (MOLT-4 leukemia)?
Its TGI is under 10 nM.

What about the GI50 (SF-295 CNS) of the same compound?
The GI50 was under 10 nM.

And the TGI (SF-295 CNS)?
The TGI was under 10 nM.

What about the GI50 (OVCAR-8 ovarian) of the same compound?
The GI50 was under 10 nM.

And the TGI (OVCAR-8 ovarian)?
The TGI was 62.2 nM.

And the GI50 (U251 glioblastoma)?
The GI50 was 10.2 nM.

And the TGI (U251 glioblastoma)?
Its TGI is 25.6 nM.

What about the GI50 (A549 NSCLC) of the same compound?
The GI50 was under 10 nM.

What about the TGI (A549 NSCLC) of the same compound?
The TGI was 256 nM.

What about the GI50 (A498 renal) of the same compound?
The GI50 was under 10 nM.

And the TGI (A498 renal)?
The TGI was 10.3 nM.

And the GI50 (SNB-75 CNS)?
The GI50 was under 10 nM.

What about the TGI (SNB-75 CNS) of the same compound?
Its TGI is under 10 nM.

What about the GI50 (SK-MEL-5 melanoma) of the same compound?
The GI50 was under 10 nM.

And the TGI (SK-MEL-5 melanoma)?
Its TGI is under 10 nM.

And the GI50 (NCI-H460 NSCLC)?
Its GI50 is 23.1 nM.

And the TGI (NCI-H460 NSCLC)?
Its TGI is 99.6 nM.

What about the GI50 (UACC-257 melanoma) of the same compound?
The GI50 was under 10 nM.

And the TGI (UACC-257 melanoma)?
The TGI was 11.7 nM.

And the GI50 (MALME-3M melanoma)?
Its GI50 is under 10 nM.

What about the TGI (MALME-3M melanoma) of the same compound?
Its TGI is under 10 nM.

What about the GI50 (MCF7 breast) of the same compound?
The GI50 was under 10 nM.

What about the TGI (MCF7 breast) of the same compound?
Its TGI is 325 nM.

What about the GI50 (NCI/ADR-RES ovarian) of the same compound?
Its GI50 is 1290 nM.

What about the TGI (NCI/ADR-RES ovarian) of the same compound?
The TGI was 2910 nM.

And the GI50 (OVCAR-3 ovarian)?
Its GI50 is under 10 nM.

And the TGI (OVCAR-3 ovarian)?
The TGI was under 10 nM.

What about the GI50 (SF-268 CNS) of the same compound?
The GI50 was under 10 nM.

And the TGI (SF-268 CNS)?
Its TGI is under 10 nM.

And the GI50 (RXF 393 renal)?
The GI50 was under 10 nM.

What about the TGI (RXF 393 renal) of the same compound?
The TGI was under 10 nM.

And the GI50 (TK-10 renal)?
The GI50 was under 10 nM.

What about the TGI (TK-10 renal) of the same compound?
The TGI was 22.5 nM.

What about the GI50 (LOX IMVI melanoma) of the same compound?
Its GI50 is under 10 nM.

What about the TGI (LOX IMVI melanoma) of the same compound?
The TGI was 12 nM.

And the GI50 (OVCAR-5 ovarian)?
Its GI50 is under 10 nM.

What about the TGI (OVCAR-5 ovarian) of the same compound?
Its TGI is 81.2 nM.

What about the GI50 (SK-OV-3 ovarian) of the same compound?
Its GI50 is under 10 nM.

And the TGI (SK-OV-3 ovarian)?
The TGI was 23 nM.
